Source: paper PMC5855801, “Benzothiophenone Derivatives Targeting Mutant Forms of Estrogen Receptor-α in Hormone-Resistant Breast Cancers” (International Journal of Molecular Sciences, 2018)

Target: T1, androgen receptor (AR) (Homo sapiens, UniProt P10275)
T1 construct: expressed in transfected cells; host or cells: PC3
T1 sequence (P10275 1-920): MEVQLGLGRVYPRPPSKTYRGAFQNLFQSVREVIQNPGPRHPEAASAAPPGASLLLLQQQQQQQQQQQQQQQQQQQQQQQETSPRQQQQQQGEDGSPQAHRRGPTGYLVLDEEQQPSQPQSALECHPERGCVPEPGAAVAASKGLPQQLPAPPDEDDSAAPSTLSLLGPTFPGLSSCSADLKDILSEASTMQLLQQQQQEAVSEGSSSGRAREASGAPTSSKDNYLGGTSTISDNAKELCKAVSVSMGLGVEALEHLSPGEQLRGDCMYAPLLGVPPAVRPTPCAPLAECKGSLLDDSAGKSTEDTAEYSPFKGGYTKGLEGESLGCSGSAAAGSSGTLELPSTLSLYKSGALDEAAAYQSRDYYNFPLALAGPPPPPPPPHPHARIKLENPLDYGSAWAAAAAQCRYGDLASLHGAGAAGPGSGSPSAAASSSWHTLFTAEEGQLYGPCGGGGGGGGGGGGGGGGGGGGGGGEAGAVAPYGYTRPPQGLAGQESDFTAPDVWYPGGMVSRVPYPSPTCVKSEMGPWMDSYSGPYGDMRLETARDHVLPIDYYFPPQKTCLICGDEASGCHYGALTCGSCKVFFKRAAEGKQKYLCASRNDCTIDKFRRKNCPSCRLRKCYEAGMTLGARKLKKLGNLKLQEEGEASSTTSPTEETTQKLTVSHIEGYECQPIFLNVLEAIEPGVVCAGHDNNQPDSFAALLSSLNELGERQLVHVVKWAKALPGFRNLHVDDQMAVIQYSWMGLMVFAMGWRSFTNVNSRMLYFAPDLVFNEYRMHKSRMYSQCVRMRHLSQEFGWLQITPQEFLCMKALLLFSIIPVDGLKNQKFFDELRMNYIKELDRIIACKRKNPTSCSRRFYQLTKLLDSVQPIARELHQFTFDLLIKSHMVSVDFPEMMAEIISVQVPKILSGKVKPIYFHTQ
Experiment: Luciferase reporter selectivity assay in PC3 cells, AR
Format: cell-based
Details: 24 h
Method: Figure 4 Further activity profile of VPC-16606. (A,B) Chromatin immunoprecipitation (ChIP) analysis of ERα binding to the pS2 enhancer, or the GAPDH promoter, in MCF7 cells. Where indicated, ERα was stimulated with 1 nM E2 or dimethyl sulfoxide (DMSO) alone, and the compound was administered at a 6 μM concentration. Sheared chromatin-protein complexes were precipitated with the ERα antibody, reverse cross-linked and analyzed by quantitative PCR. The results are normalized as fold enrichment over precipitation with a rabbit isotype control IgG antibody for each condition tested. Error bars indicate standard error of the mean (SEM) for 3 independent experiments performed in triplicates. Fold enrichment from the compound tested condition (ERα antibody) was statistically compared against DMSO + E2 with a two-tailed t-test (unpaired) *** indicates p-value <0.001. (C) Specificity of VPC-16606 was evaluated in the luciferase reporter assay. PC3 cells were transfected with plasmids expressing androgen receptor (AR), progesterone receptor (PR) or glucocorticoid receptor (GR) along with their responsive luciferase reporter constructs bearing androgen response element (ARE), progesterone response element (PRE) or glucocorticoid response element (GRE), respectively. […] Y-axis represents relative luminescence (RLU) after normalizing to constitutive renilla reporter. […]

CC(=O)N(/N=C1\Sc2c(C)cccc2C1=O)c1ccccc1Cl [VPC-16606]
Effect on AR activity (luciferase) (50 µM): some effect | Effect on AR activity (luciferase) (doses up to 25 µM): does not affect the activity
